Results: patent US12528801B2 (Givaudan SA, priority 2019, dated 2026)

Molecular target: T1, hTRPM8 (Homo sapiens, UniProt Q7Z2W7)
T1 construct: expressed in transfected cells
Experiment: Assay on TRPM8 modulators: calcium imaging (Fluo-4, Flexstation) in HEK293 cell line stably expressing hTRPM8
Format: cell-based
Details: HEK293 cells stably expressing hTRPM8; calcium influx, Fluo-4, Flexstation 3; sigmoidal dose-response fit
Summary of the method: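 HEK293 cells stably expressing hTRPM8 were loaded with Fluo-4 AM plus probenecid and kept in HEPES buffer, pH 7.4. Calcium influx to serially diluted compounds was recorded for 120 s. Maximal activation was referenced to solvent control and 31.6 μM menthol, with EC values from sigmoidal dose-response fits.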

T1 sequence (Q7Z2W7 whole entry): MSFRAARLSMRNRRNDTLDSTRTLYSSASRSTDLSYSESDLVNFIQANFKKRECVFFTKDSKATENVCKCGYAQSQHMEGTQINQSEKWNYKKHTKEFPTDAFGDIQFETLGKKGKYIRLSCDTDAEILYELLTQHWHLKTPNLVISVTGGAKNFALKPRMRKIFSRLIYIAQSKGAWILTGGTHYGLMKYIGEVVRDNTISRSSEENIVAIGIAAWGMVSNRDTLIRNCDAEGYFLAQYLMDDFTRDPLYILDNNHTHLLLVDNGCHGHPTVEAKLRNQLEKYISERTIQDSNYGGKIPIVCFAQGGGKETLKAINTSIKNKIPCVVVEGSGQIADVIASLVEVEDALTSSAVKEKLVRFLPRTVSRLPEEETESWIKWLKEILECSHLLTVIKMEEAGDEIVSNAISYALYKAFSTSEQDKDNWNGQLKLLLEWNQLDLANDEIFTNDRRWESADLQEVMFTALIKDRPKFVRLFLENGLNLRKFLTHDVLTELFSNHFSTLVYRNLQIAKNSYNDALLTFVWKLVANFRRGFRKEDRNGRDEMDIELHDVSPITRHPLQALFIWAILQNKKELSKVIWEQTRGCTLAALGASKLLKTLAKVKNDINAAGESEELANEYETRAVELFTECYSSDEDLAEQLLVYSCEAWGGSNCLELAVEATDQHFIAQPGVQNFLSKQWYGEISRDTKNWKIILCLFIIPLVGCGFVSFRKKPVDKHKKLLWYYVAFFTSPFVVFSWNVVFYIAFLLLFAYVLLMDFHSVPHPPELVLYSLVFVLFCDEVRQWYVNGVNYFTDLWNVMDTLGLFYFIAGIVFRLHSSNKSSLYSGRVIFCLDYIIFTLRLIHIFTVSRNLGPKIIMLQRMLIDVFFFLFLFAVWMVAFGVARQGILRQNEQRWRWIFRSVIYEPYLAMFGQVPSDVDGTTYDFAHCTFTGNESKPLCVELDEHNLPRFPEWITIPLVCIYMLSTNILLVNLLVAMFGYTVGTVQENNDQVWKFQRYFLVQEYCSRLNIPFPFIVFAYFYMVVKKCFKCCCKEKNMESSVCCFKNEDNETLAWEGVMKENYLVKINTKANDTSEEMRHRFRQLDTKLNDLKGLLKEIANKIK

Compound | EC50 [nM]
Cc1ccc(-c2cnc(C3CCCCN3C(=O)C(C)N)[nH]2)cc1 (centres unmarked) [Compound 147, 2-amino-1-(2-(5-(p-toly)-1H-imidazol-2-yl)piperidin-1-yl)propan-1-one] | 1000 to 35000
CC1(C)CC1C(=O)N1CCCCC1c1nc(-c2ccccc2)c[nH]1 (centres unmarked) [Compound 3, (2,2-dimethylcyclopropyl)(2-(4-phenyl-1H-imidazol-2-yl)piperidin-1-yl)methanone] | < 50
CSC(C)C(=O)N1CCCCC1c1nc(-c2ccncc2)c[nH]1 (centres unmarked) [Compound 114, 2-(methylthio)-1-(2-(4-(pyridin-4-yl)-1H-imidazol-2-yl)piperidin-1-yl)propan-1-one] | 300 to 1000
COCc1ccc(-c2cnc(C3CCCCN3C(=O)C(C)SC)[nH]2)cc1F (centres unmarked) [Compound 64, 1-(2-(5-(3-fluoro-4-(methoxymethyl)phenyl)-1H-imidazol-2-yl)piperidin-1-yl)-2-(methylthio)propan-1-one] | 50 to 300
C=C(C)C(=O)N1CCCCC1c1ncc(-c2ccc(C)cc2)[nH]1 (centres unmarked) [Compound 169, 2-methyl-1-(2-(5-(p-tolyl)-1H-imidazol-2-yl)piperidin-1-yl)prop-2-en-1-one] | < 50
C=C(CC)C(=O)N1CCCCC1c1ncc(-c2ccc(C)cc2)[nH]1 (centres unmarked) [Compound 173, 2-methylene-1-(2-(5-(p-toly)-1H-imidazol-2-yl)piperidin-1-yl)butan-1-one] | < 50
CSC(C)C(=O)N1CCCCC1c1ncc(-c2ccc(C)cc2F)[nH]1 (centres unmarked) [Compound 57, 1-(2-(5-(2-fluoro-4-methylphenyl)-1H-imidazol-2-yl)piperidin-1-yl)-2-(methylthio)propan-1-one] | < 50
CSC(C)C(=O)N1CCCCC1c1ncc(-c2ccc(C)cc2)s1 (centres unmarked) [Compound 134, 2-(methylthio)-1-(2-(5-(p-tolyl)thiazol-2-yl)piperidin-1-yl)propan-1-one] | < 50
CSC(C)C(=O)N1CCCCC1c1nc(-c2ccc(S(=O)(=O)NCCO)cc2)c[nH]1 (centres unmarked) [Compound 189, N-(2-hydroxyethyl)-4-(2-(1-(2-(methylthio)propanoyl)piperidin-2-yl)-1H-imidazol-4-yl)benzenesulfonamide] | 1000 to 35000
CSC(C)C(=O)N1CCCCC1c1ncc(-c2ccccc2C#N)[nH]1 (centres unmarked) [Compound 89, 2-(2-(1-(2-(methylthio)propanoyl)piperidin-2-yl)-1H-imidazol-5-yl)benzonitrile] | 300 to 1000
CSC(C)C(=O)N1CCCCC1c1nc(-c2ccc3c(c2)OCC3)c[nH]1 (centres unmarked) [Compound 19, 1-(2-(4-(2,3-dihydrobenzofuran-6-yl)-1H-imidazol-2-yl)piperidin-1-yl)-2-(methylthio)propan-1-one] | < 50
CSC(C)C(=O)N1CCCCC1c1nc(-c2ccccc2Cl)c[nH]1 (centres unmarked) [Compound 21, 1-(2-(4-(2-chlorophenyl)-1H-imidazol-2-yl)piperidin-1-yl)-2-(methylthio)propan-1-one] | < 50
CSC(C)C(=O)N1CCCCC1c1nc2ccccc2[nH]1 (centres unmarked) [Compound 15, 1-(2-(1H-benzo[d]imidazol-2-yl)piperidin-1-yl)-2-(methylthio)propan-1-one] | 1000 to 35000
CSC(C)C(=O)N1CCCCC1c1nc(-c2ccc(C)cc2)co1 (centres unmarked) [Compound 207, 2-(methylthio)-1-(2-(4-(p-tolyl)oxazol-2-yl)piperidin-1-yl)propan-1-one] | < 50
CSC(C)C(=O)N1CCCCC1c1ncc(-c2cccc(F)c2F)[nH]1 (centres unmarked) [Compound 53, 1-(2-(5-(2,3-difluorophenyl)-1H-imidazol-2-yl)piperidin-1-yl)-2-(methylthio)propan-1-one] | 50 to 300
CSC(C)C(=O)N1CCCCC1c1nnc(-c2ccc(C)cc2)o1 (centres unmarked) [Compound 128, 2-(methylthio)-1-(2-(5-(p-tolyl)-1,3,4-oxadiazol-2-yl)piperidin-1-yl)propan-1-one] | 300 to 1000
CSC(C)C(=O)N1CCCCC1c1nc(-c2ccc(CN3CCS(=O)(=O)CC3)cc2)c[nH]1 (centres unmarked) [Compound 30, 1-(2-(4-(4-((1,1-dioxidothiomorpholino)methyl)phenyl)-1H-imidazol-2-yl)piperidin-1-yl)-2-(methylthio)propan-1-one] | 1000 to 35000
CSC(C)C(=O)N1CCCCC1c1nc(-c2ccc(C)nc2)c[nH]1 (centres unmarked) [Compound 45, 1-(2-(4-(6-methylpyridin-3-yl)-1H-imidazol-2-yl)piperidin-1-yl)-2-(methylthio)propan-1-one] | < 50
Cc1ccc(-c2cnc(C3CCCCN3C(=O)C(C)S)[nH]2)cc1 (centres unmarked) [Compound 157, 2-mercapto-1-(2-(5-(p-tolyl)-1H-imidazol-2-yl)piperidin-1-yl)propan-1-one] | 50 to 300
CNCc1ccc(-c2cnc(C3CCCCN3C(=O)C(C)SC)[nH]2)cc1 (centres unmarked) [Compound 69, 1-(2-(5-(4-((methylamino)methyl)phenyl)-1H-imidazol-2-yl)piperidin-1-yl)-2-(methylthio)propan-1-one] | 1000 to 35000
CCc1ccc(-c2cnc(C3CCCCN3C(=O)C(C)SC)[nH]2)cc1 (centres unmarked) [Compound 78, 1-(2-(5-(4-ethylphenyl)-1H-imidazol-2-yl)piperidin-1-yl)-2-(methylthio)propan-1-one] | < 50

Compound | EC50 [nM]
CSCC(C)C(=O)N1CCCCC1c1nc(-c2ccccc2)c[nH]1 (centres unmarked) [Compound 172] | 300 to 1000
CCOC1CC1C(=O)N1CCCCC1c1nc(-c2ccccc2)c[nH]1 (centres unmarked) [Compound 4, (2-ethoxycyclopropyl)(2-(4-phenyl-1H-imidazol-2-yl)piperidin-1-yl)methanone] | 300 to 1000
CSC(C)C(=O)N1CCCCC1c1ncc(-c2ccc(C)c(C)c2)[nH]1 (centres unmarked) [Compound 63, 1-(2-(5-(3,4-dimethylphenyl)-1H-imidazol-2-yl)piperidin-1-yl)-2-(methylthio)propan-1-one] | < 50
CSC(C)C(=O)N1CCCCC1c1nc(-c2ccc(F)cc2)c[nH]1 (centres unmarked) [Compound 38, 1-(2-(4-(4-fluorophenyl)-1H-imidazol-2-yl)piperidin-1-yl)-2-(methylthio)propan-1-one] | < 50
Cc1ccc(-c2cnc(C3CCCCN3C(=O)C3CCOC3)[nH]2)cc1 (centres unmarked) [Compound 14, (tetrahydrofuran-3-yl)(2-(5-(p-toly)-1H-imidazol-2-yl)piperidin-1-yl)methanone] | 300 to 1000
CSC(C)C(=O)N1CCCCC1c1nc(-c2ccc(C)c(C(F)(F)F)c2)c[nH]1 (centres unmarked) [Compound 41, 1-(2-(4-(4-methyl-3-(trifluoromethyl)phenyl)-1H-imidazol-2-yl)piperidin-1-yl)-2-(methylthio)propan-1-one] | 50 to 300
CSC(C)C(=O)N1CCCCC1c1ncc(-c2ccc(CO)cc2)[nH]1 (centres unmarked) [Compound 73, 1-(2-(5-(4-(hydroxymethyl)phenyl)-1H-imidazol-2-yl)piperidin-1-yl)-2-(methylthio)propan-1-one] | 300 to 1000
CSC(C)C(=O)N1CCCCC1c1nc(-c2ccc(S(C)(=O)=O)cc2)c[nH]1 (centres unmarked) [Compound 34, 1-(2-(4-(4-(methylsulfonyl)phenyl)-1H-imidazol-2-yl)piperidin-1-yl)-2-(methylthio)propan-1-one] | 1000 to 35000
O=C(CC(F)(F)C(F)(F)F)N1CCCCC1c1nc(-c2ccccc2)c[nH]1 (centres unmarked) [Compound 176, 3,3,4,4,4-pentafluoro-1-(2-(4-phenyl-1H-imidazol-2-yl)piperidin-1-yl)butan-1-one] | 1000 to 35000
CSC(C)C(=O)N1CCCCC1c1nc(-c2ccc(C)o2)c[nH]1 (centres unmarked) [Compound 43, 1-(2-(4-(5-methylfuran-2-yl)-1H-imidazol-2-yl)piperidin-1-yl)-2-(methylthio)propan-1-one] | < 50
CSC(C)C(=O)N1CCCCC1c1nnc(-c2ccc(F)cc2)[nH]1 (centres unmarked) [Compound 79, 1-(2-(5-(4-fluorophenyl)-4H-1,2,4-triazol-3-yl)piperidin-1-yl)-2-(methylthio)propan-1-one] | < 50
CC(CC(F)(F)F)C(=O)N1CCCCC1c1nc(-c2ccccc2)c[nH]1 (centres unmarked) [Compound 183, 4,4,4-trifluoro-2-methyl-1-(2-(4-phenyl-1H-imidazol-2-yl)piperidin-1-yl)butan-1-one] | 300 to 1000
CS[C@@H](C)C(=O)N1CCCC[C@H]1c1ncc(-c2ccc(C)cc2)[nH]1 [Compound 13, (S)-2-(methylthio)-1-((S)-2-(5-(p-tolyl)-1H-imidazol-2-yl)piperidin-1-yl)propan-1-one] | 50 to 300
CSC(C)C(=O)N1CCCCC1c1ncc(-c2ccc(Cl)cc2)[nH]1 (centres unmarked) [Compound 77, 1-(2-(5-(4-chlorophenyl)-1H-imidazol-2-yl)piperidin-1-yl)-2-(methyltbio)propan-1-one] | < 50
COC(C)C(=O)N1CCCCC1c1ncc(-c2ccc(C)cc2)[nH]1 (centres unmarked) [Compound 160, 2-methoxy-1-(2-(5-(p-tolyl)-1H-imidazol-2-yl)piperidin-1-yl)propan-1-one] | 50 to 300
CSC(C)C(=O)N1CCCCC1c1ncc(-c2ccc(F)c(F)c2F)[nH]1 (centres unmarked) [Compound 120, 2-(methylthio)-1-(2-(5-(2,3,4-trifluorophenyl)-1H-imidazol-2-yl)piperidin-1-yl)propan-1-one] | < 50
CC(C(=O)N1CCCCC1c1nc(-c2ccccc2)c[nH]1)C1CC1 (centres unmarked) [Compound 151, 2-cyclopropyl-1-(2-(4-phenyl-1H-imidazol-2-yl)piperidin-1-yl)propan-1-one] | 50 to 300
C=CCSC(C)C(=O)N1CCCCC1c1ncc(-c2ccc(C)cc2)[nH]1 (centres unmarked) [Compound 92, 2-(allylthio)-1-(2-(5-(p-tolyl)-1H-imidazol-2-yl)piperidin-1-yl)propan-1-one] | < 50
CSC(C)C(=O)N1CCCCC1c1nc(-c2ccc(CN3CCOCC3)cc2)c[nH]1 (centres unmarked) [Compound 107, 2-(methylthio)-1-(2-(4-(4-(morpholinomethyl)phenyl)-1H-imidazol-2-yl)piperidin-1-yl)propan-1-one] | 1000 to 35000
CSC(C)C(=O)N1CCCCC1c1ncc(-c2ccc(Cl)c(F)c2)[nH]1 (centres unmarked) [Compound 76, 1-(2-(5-(4-chloro-3-fluorophenyl)-1H-imidazol-2-yl)piperidin-1-yl)-2-(methylthio)propan-1-one] | < 50
